≈ marks a conversion by molar mass, not a printed value.
Assays:
[1] = Pharmacokinetics of solid solution capsules in dogs; settings: male, beagle, dog, in vivo, po, 20 mg, PO 20 mg/dog
Method: Solid Solution capsules of Compound 1 comprising 50:50 macrogol-40-glycerol hydroxystearate:PEG-4000 or 100% macrogol-40-glycerol hydroxystearate were prepared using the general procedures described in Example 4. The PEG heating steps were omitted for the 100% macrogol-40 glycerol hydroxystearate formulations. These formulations were dosed in beagle dogs (male) at 20 mg per dog to evaluate the pharmacokinetic profile. The results are summarized in Table 11 (below, and shown in FIG. 8 (50:50 macrogol-40-glycerol hydroxystearate:PEG-4000 and FIG. 9 (100% macrogol-40-glycerol hydroxystearate).

[2] = Pharmacokinetics of solid solution capsule in patients with ANCA associated vasculitis; type: in vivo, Humans; settings: for Days 57-85 Cmin, Mean / AUC(0-t) / Cmax / Tmax: 30 mg twice daily oral, 50:50 solid solution capsules; for AUC(0-t) / Cmax / Tmax: human, in vivo, po; for AUC(0-t): read-out: Day 1 AUC0-6hr, Mean; for Cmax: read-out: Day 1 Cmax, Mean; for Tmax: read-out: Day 1 Tmax, Mean
Method: Solid Solution capsules of Compound 1 comprising 50:50 macrogol-40-glycerol hydroxystearate:PEG-4000 were prepared using the general procedures described in Example 4.
Patients with AAV were randomized and double-blind in placebo-controlled clinical trial conducted in a step-wise manner to evaluate the efficacy and safety of Compound 1 formulated in a solid solution as described above with reduced or no prednisone in comparison with the standard of care full dose prednisone. All patients received either cyclophosphamide (CYC) or rituximab (RTX) intravenously. 22 subjects received 30 mg of Compound 1 as described above b.i.d. for 84 days and no prednisone (prednisone-matching placebo), 22 subjects received 30 mg Compound 1 as described above b.i.d. for 84 days plus a reduced starting dose (i.e., 20 mg/day) of prednisone, and 23 subjects received Compound 1 as described above—matching placebo b.i.d. for 84 days plus a full starting dose of prednisone (i.e., 60 mg/day). All subjects received IV cyclophosphamide or rituximab.

[3] = pH solubility profile of Compound 1 in buffers, water, HCl and biorelevant media; type: physicochemical
[4] = Food effect study (high fat, high calorie meal) in healthy volunteers; type: in vivo, human; settings: for Tmax / AUC(0-inf) / AUC(0-t) / Cmax: human, plasma, 30 mg; for AUC(0-inf): read-out: AUC0-inf, Geometric LSM; for AUC(0-t): read-out: AUC0-t, Geometric LSM; for Cmax: read-out: Cmax, Geometric LSM
Method: An open-label study in 16 healthy volunteers to evaluate the pharmacokinetic effect of a high fat (˜50% of total caloric content of the meal), high calorie meal on the solid solution capsule of Compound 1 in a 50:50 mixture of macrogol-40-glycerol hydroxystearate:PEG-4000. Subjects received a single oral dose of 30 mg Compound 1, given in the fed or fasted state. Blood samples were collected for measurement of Compound 1 plasma concentrations.

[5] = capsule in 50:50 macrogol-40-glycerol hydroxystearate:PEG-4000, Average of T1-T3
[6] = capsule in 50:50 macrogol-40-glycerol hydroxystearate:PEG-4000, trial T1
[7] = capsule in 50:50 macrogol-40-glycerol hydroxystearate:PEG-4000, trial T2
[8] = capsule in 50:50 macrogol-40-glycerol hydroxystearate:PEG-4000, trial T3
[9] = capsule in 100% macrogol-40-glycerol hydroxystearate, Average of T1-T3
[10] = capsule in 100% macrogol-40-glycerol hydroxystearate, trial T1
[11] = capsule in 100% macrogol-40-glycerol hydroxystearate, trial T2
[12] = capsule in 100% macrogol-40-glycerol hydroxystearate, trial T3
[13] = AAV patients, Compound 1 + Low Dose Prednisone
[14] = 30 mg, AAV patients, Compound 1 + No Prednisone
[15] = 30 mg, AAV patients, Compound 1 with or without Prednisone
[16] = healthy volunteers, 30 mg single oral dose, 100 × (test/reference)
[17] = high fat, high calorie meal with 30 mg Compound 1
[18] = po, healthy volunteers, 30 mg single oral dose, 50:50 solid solution capsule, Fasted
[19] = po, healthy volunteers, 30 mg single oral dose, 50:50 solid solution capsule, Fed (high fat, high calorie meal)

AUC(0-inf) [1, 5]: 1630 ng·h/mL | AUC(0-t) [1, 5]: 1580 ng·h/mL | Cmax [1, 5]: 429 ng/mL | MRT [1, 5]: 4.7 h | Tmax [1, 5]: 1.3 h | AUC(0-inf) [1, 6]: 1310 ng·h/mL | AUC(0-t) [1, 6]: 1260 ng·h/mL | Cmax [1, 6]: 411 ng/mL | MRT [1, 6]: 4.8 h | Tmax [1, 6]: 1 h | AUC(0-inf) [1, 7]: 1440 ng·h/mL | AUC(0-t) [1, 7]: 1390 ng·h/mL | Cmax [1, 7]: 396 ng/mL | MRT [1, 7]: 4.5 h | Tmax [1, 7]: 1 h | AUC(0-inf) [1, 8]: 2150 ng·h/mL | AUC(0-t) [1, 8]: 2080 ng·h/mL | Cmax [1, 8]: 481 ng/mL | MRT [1, 8]: 4.8 h | Tmax [1, 8]: 2 h | AUC(0-inf) [1, 9]: 2440 ng·h/mL | AUC(0-t) [1, 9]: 2370 ng·h/mL | Cmax [1, 9]: 607 ng/mL | MRT [1, 9]: 4.8 h | Tmax [1, 9]: 2.3 h | AUC(0-inf) [1, 10]: 2660 ng·h/mL | AUC(0-t) [1, 10]: 2470 ng·h/mL | Cmax [1, 10]: 590 ng/mL | MRT [1, 10]: 7.1 h | Tmax [1, 10]: 2 h | AUC(0-inf) [1, 11]: 3020 ng·h/mL | AUC(0-t) [1, 11]: 3000 ng·h/mL | Cmax [1, 11]: 604 ng/mL | MRT [1, 11]: 4.2 h | Tmax [1, 11]: 4 h | AUC(0-inf) [1, 12]: 1660 ng·h/mL | AUC(0-t) [1, 12]: 1650 ng·h/mL | Cmax [1, 12]: 628 ng/mL | MRT [1, 12]: 3.2 h | Tmax [1, 12]: 1 h | Days 57-85 Cmin, Mean [2, 13]: 219 ng/mL | Days 57-85 Cmin, Mean ([2]; AAV patients, Compound 1 + No Prednisone): 177 ng/mL | Days 57-85 Cmin, Mean ([2]; AAV patients, Compound 1 with or without Prednisone): 204 ng/mL | absorption ([2]; following the first dose of 30 mg on Day 1, AAV patients): absorbed rapidly | AUC(0-t) [2, 14]: 526 ng·h/mL | Cmax [2, 14]: 166 ± 55.2 ng/mL | Tmax [2, 14]: 2.85 h | AUC(0-t) [2, 15]: 580 ± 219 ng·h/mL | Cmax [2, 15]: 188 ± 69 ng/mL | Tmax [2, 15]: 2.62 h | AUC(0-t) [2, 13]: 643 ng·h/mL | Cmax [2, 13]: 214 ng/mL | Tmax [2, 13]: 2.35 h | drug-drug interaction ([2]; with concomitant medications prednisone, cyclophosphamide, and rituximab, AAV patients): No significant drug-drug interaction | solubility ([3]; Fasted-State Simulated Intestinal Fluid (FaSSIF), FaSSIF, pH 6.5, actual pH 6.47): 0.656 µg/mL (≈ 1.13 µM) | solubility ([3]; Fed-State Simulated Intestinal Fluid (FeSSIF), FeSSIF, pH 5, actual pH 4.98): 2.09 µg/mL (≈ 3.6 µM) | solubility ([3]; Fed-State Simulated Intestinal Fluid (FeSSIF), FeSSIF, pH 6.5, actual pH 6.47): 1.96 µg/mL (≈ 3.37 µM) | solubility ([3]; Simulated Gastric Fluid (SGF), simulated gastric fluid, SGF, pH 1.6, actual pH 1.39): 2.65 µg/mL (≈ 4.55 µM) | solubility ([3]; Water, actual pH 5.92): 0.008 µg/mL (≈ 0.0138 µM) | aqueous solubility ([3]; across full spectrum of pH range, including the biorelevant media and water): very poor aqueous solubility | solubility ([3]; aqueous buffer, pH 2 Buffer, actual pH 1.99): 0.863 µg/mL (≈ 1.48 µM) | solubility ([3]; aqueous buffer, pH 3 Buffer, actual pH 3.01): 0.101 µg/mL (≈ 0.174 µM) | solubility ([3]; aqueous buffer, pH 4 Buffer, actual pH 4.01): 0.013 µg/mL (≈ 0.0224 µM) | solubility ([3]; aqueous buffer, pH 5 Buffer, actual pH 5.00): 0.021 µg/mL (≈ 0.0361 µM) | solubility ([3]; aqueous buffer, pH 6 Buffer, actual pH 6.00): 0.021 µg/mL (≈ 0.0361 µM) | solubility ([3]; aqueous buffer, pH 7 Buffer, actual pH 7.03): 0.053 µg/mL (≈ 0.0911 µM) | solubility ([3]; aqueous buffer, pH 8 Buffer, actual pH 8.00): 0.068 µg/mL (≈ 0.117 µM) | solubility ([3]; aqueous buffer, pH 9 Buffer, actual pH 9.00): 0.101 µg/mL (≈ 0.174 µM) | solubility ([3]; aqueous buffer, pH 10 Buffer, actual pH 9.95): 0.03 µg/mL (≈ 0.0516 µM) | solubility ([3]; simulated gastric fluid, 0.1N HCl, actual pH 1.05): 8.05 µg/mL (≈ 13.8 µM) | AUC0-inf, GMR (fed/fasted) [4, 16]: 171.60% | AUC0-t, GMR (fed/fasted) [4, 16]: 170.68% | Cmax, GMR (fed/fasted) [4, 16]: 107.98% | Tmax, GMR (fed/fasted) [4, 16]: 235.29% | increase of Cmax, fed compared to fasted [4, 17]: 8% | increase of plasma Compound 1 AUC, fed compared to fasted [4, 17]: approximately 70% | Tmax ([4]; oral, high fat, high calorie meal with 30 mg Compound 1, read-out: delay of Tmax in the fed population): ~3 h | AUC(0-inf) [4, 18]: 959 ng·h/mL | AUC(0-t) [4, 18]: 826 ng·h/mL | Cmax [4, 18]: 119 ng/mL | Tmax ([4]; po, healthy volunteers, 30 mg single oral dose, 50:50 solid solution capsule, Fasted, read-out: Tmax, untransformed LSM): 2.29 h | AUC(0-inf) [4, 19]: 1650 ng·h/mL | AUC(0-t) [4, 19]: 1410 ng·h/mL | Cmax [4, 19]: 128 ng/mL | Tmax ([4]; po, healthy volunteers, 30 mg single oral dose, 50:50 solid solution capsule, Fed (high fat, high calorie meal), read-out: Tmax, untransformed LSM): 5.38 h
Compound: Cc1ccc(NC(=O)[C@H]2CCCN(C(=O)c3c(C)cccc3F)[C@H]2c2ccc(NC3CCCC3)cc2)cc1C(F)(F)F [Compound 1, (2R,3 S)-2-(4-(cyclopentylamino)phenyl)-1-(2-fluoro-6-methylbenzoyl)-N-(4-methyl-3-(trifluoromethyl)phenyl)piperidine-3-carboxamide]
